# Measured values from PMC11938014, “Development and Application of Small Molecule–Peptide Conjugates as Cathepsin K-Specific Covalent Irreversible Inhibitors in Human Osteoclast and Lung Cancer” (JACS Au, 2025).
# Molecular target: T1, CTSK in human OCs (Homo sapiens, UniProt P43235)
# T1 construct: endogenous in cells; host or cells: primary human osteoclasts differentiated from blood monocytes with M-CSF and RANKL
# T1 sequence (P43235 115-329): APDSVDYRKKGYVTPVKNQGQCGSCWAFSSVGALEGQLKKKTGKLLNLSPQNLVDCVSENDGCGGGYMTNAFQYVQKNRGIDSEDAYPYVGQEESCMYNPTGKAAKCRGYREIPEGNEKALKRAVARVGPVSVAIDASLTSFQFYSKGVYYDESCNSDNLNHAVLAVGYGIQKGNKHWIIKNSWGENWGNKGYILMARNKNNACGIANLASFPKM
# Assay: Gel-based residual cathepsin activity in human osteoclasts (GB123) and immunoblot
# Type: cell-based
# Protocol: Figure 6 CTSK inhibition in human osteoclasts. (a) Scheme of the process of maturation of osteoclasts (OCs) derived from human monocytes in the presence of RANKL and M-CSF. (b) Representative pictures of bone resorption after incubation with human OCs treated with vehicle or inhibitors for 10–14 days. Bone resorption was observed by a toluidine blue stain. Increased staining indicates a higher number of resorption pits and greater bone resorption. (c) Quantitative analysis of pit formation in bone slices after incubation with OC treated with GD20 or ODN (1, 5 μM) relative to vehicle treated slices. Data represent mean ± standard errors, and asterisks represent p values relative to control, *p < 0.05, **p < 0.01, ***p < 0.001, n = 3 bone slices. (d) Representative images of tartrate-resistant acid phosphatase (TRAP) staining of the human osteoclasts on bone slices in the presence of vehicle or inhibitors, as indicated. […] (e) Quantification of osteoclasts number on bone slices after inhibitor treatment, detected by TRAP staining. (f) Human OCs were treated with vehicle or increasing concentrations of GD20 for 11 days (changing the medium every 2–3 days). The activity of CTSK in the cells was detected by 2 h labeling with a pan-cathepsin activity-based probe, GB123, followed by a fluorescence scan of the SDS-PAGE detecting CTSK attached to the probe; the red arrow points to the bands of CTSK (above 25 kDa). CTSK immunoblot of the same OCs is presented aside.
# Cells were seeded 3 × 10^6 per 24-well plate (Primaria, Corning) in 1 mL of RPMI 1640 medium supplemented with 10% FBS and 50 μg/mL gentamicin. The next day, the medium was removed, and the adherent cells were washed with α-MEM and cultured for 14 consecutive days in α-MEM supplemented with 10% FBS, 1% penicillin, 1% streptomycin (Biological Industries), 100 ng/mL RANKL (R&D Systems), and 25 ng/mL M-CSF (R&D Systems) (for osteoclast) or with 25 ng/mL M-CSF and IL-4 (macrophage). Every 3 days, the media was changed with the required amount of M-CSF and RANKL until the giant osteoclasts appeared or with M-CSF and IL-4. […]
compound,measurement,setting,value
CC(C)C[C@H](N[C@@H](c1ccc(-c2ccc(S(C)(=O)=O)cc2)cc1)C(F)(F)F)C(=O)NCC(=O)COC(=O)[C@@H]1CCCN1C(=O)[C@H](CC(C)C)NC(=O)OCC1c2ccccc2-c2ccccc21 [GD20],CTSK activity in human OC,"1 μM, 11 days, GB123 labeling",blocked most of the CTSK activity
same,CTSB activity in human OC,"accompanying CTSK inhibition, GB123 labeling",increase in CTSB activity
same,CTSK protein levels by immunoblot,all inhibitor concentrations,elevated CTSK protein levels
